Laboratory results reported in the supplement of paper PMC4862054.

Experiments:
HDQ-P1 = assay: normalised viability (% of control), CellTiter-Blue; higher = more viable cells (100 = DMSO, 0 = benzethonium chloride kill control); conditions: 1 nM; incubation time: 72 h
Experimental: (§1)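 DSRT, CellTiter-Blue viability, 72 h incubation. Signal is normalised to DMSO and benzethonium chloride controls. Value is the normalised response at dose 1.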

CAL-85-1 = assay: as above; conditions: 1 nM; incubation time: 72 h
Experimental: as §1

MFM-223 [1] = assay: as above; conditions: 1 nM; incubation time: 72 h
Experimental: as §1

HCC1937 = assay: as above; conditions: 1 nM; incubation time: 72 h
Experimental: as §1

CAL-120 = assay: as above; conditions: 1 nM; incubation time: 72 h
Experimental: as §1

DU-4475 [2] = assay: as above; conditions: 1 nM; incubation time: 72 h
Experimental: as §1

MDA-MB-468 = assay: as above; conditions: 1 nM; incubation time: 72 h
Experimental: as §1

Hs578T = assay: as above; conditions: 1 nM; incubation time: 72 h
Experimental: as §1

MDA-MB-436 = assay: as above; conditions: 1 nM; incubation time: 72 h
Experimental: as §1

CAL-148 = assay: as above; conditions: 1 nM; incubation time: 72 h
Experimental: as §1

BT-474 [3] = assay: as above; conditions: 1 nM; incubation time: 72 h
Experimental: as §1

CAL-51 = assay: as above; conditions: 1 nM; incubation time: 72 h
Experimental: as §1

HCC1599 = assay: as above; conditions: 1 nM; incubation time: 72 h
Experimental: as §1

BT-549 [4] = assay: as above; conditions: 1 nM; incubation time: 72 h
Experimental: as §1

HCC1143 = assay: as above; conditions: 1 nM; incubation time: 72 h
Experimental: as §1

SK-BR-3 = assay: as above; conditions: 1 nM; incubation time: 72 h
Experimental: as §1

MDA-MB-453 [5] = assay: as above; conditions: 1 nM; incubation time: 72 h
Experimental: as §1

MDA-MB-231 = assay: as above; conditions: 1 nM; incubation time: 72 h
Experimental: as §1

MFM-223 [6] = assay: normalised viability (% of control), CellTiter-Blue; higher = more viable cells (about 100 = DMSO control); conditions: 100 nM; incubation time: 72 h
In short: (§2)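 Normalised viability is given for a single listed concentration of the series. In 384-well plates, breast cancer cell lines were incubated 72 h with compound, then read with CellTiter-Blue (2 h, 37 °C) at 560/590 nm. Per-plate scaling set vehicle to 100 and a positive kill control to 0, with Z'-factor quality control.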

DU-4475 [7] = assay: as above; conditions: 10 nM; incubation time: 72 h
In short: as §2

BT-474 [8] = assay: as above; conditions: 100 nM; incubation time: 72 h
In short: as §2

BT-549 [9] = assay: as above; conditions: 100 nM; incubation time: 72 h
In short: as §2

MDA-MB-453 [10] = assay: as above; conditions: 10 nM; incubation time: 72 h
In short: as §2

Structure (SMILES)	normalised viability (HDQ-P1)	normalised viability (CAL-85-1)	normalised viability (MFM-223 [1])	normalised viability (HCC1937)	normalised viability (CAL-120)	normalised viability (DU-4475 [2])	normalised viability (MDA-MB-468)	normalised viability (Hs578T)	normalised viability (MDA-MB-436)	normalised viability (CAL-148)	normalised viability (BT-474 [3])	normalised viability (CAL-51)	normalised viability (HCC1599)	normalised viability (BT-549 [4])	normalised viability (HCC1143)	normalised viability (SK-BR-3)	normalised viability (MDA-MB-453 [5])	normalised viability (MDA-MB-231)	normalised viability (MFM-223 [6])	normalised viability (DU-4475 [7])	normalised viability (BT-474 [8])	normalised viability (BT-549 [9])	normalised viability (MDA-MB-453 [10])
CO[C@@H](C(=O)N1Cc2[nH]nc(NC(=O)c3ccc(N4CCN(C)CC4)cc3)c2C1)c1ccccc1 [Danusertib]	110%	77.2%	53.6%	91.3%	81%	107%	98.7%	96.6%	96.5%	101%	101%	116%	94.1%	109%	99.3%	79.4%	84.3%	101%	44%	91%	80.8%	102%	79.6%
O=S(=O)(c1cccc2cnccc12)N1CCCNCC1 [Fasudil]	99.9%	96%	105%	88.6%	83.9%	108%	102%	116%	109%	90.8%	102%	111%	99.4%	98.8%	92.8%	93.8%	121%	106%	93.6%	107%	117%	95.6%	103%
